# Measured values published in PMC4774911, “Biochemical Screening of Five Protein Kinases from Plasmodium falciparum against 14,000 Cell-Active Compounds” (PLoS ONE, 2016).
# “And” between values parts separate entries of the source, which are not always exact repeats. Equal entries are not always repeated.
# Key:
# Experiment in all cases: biochemical
# [1] = target: T1, NEK3 (Homo sapiens, UniProt P51956)
# T1 sequence (P51956 1-506): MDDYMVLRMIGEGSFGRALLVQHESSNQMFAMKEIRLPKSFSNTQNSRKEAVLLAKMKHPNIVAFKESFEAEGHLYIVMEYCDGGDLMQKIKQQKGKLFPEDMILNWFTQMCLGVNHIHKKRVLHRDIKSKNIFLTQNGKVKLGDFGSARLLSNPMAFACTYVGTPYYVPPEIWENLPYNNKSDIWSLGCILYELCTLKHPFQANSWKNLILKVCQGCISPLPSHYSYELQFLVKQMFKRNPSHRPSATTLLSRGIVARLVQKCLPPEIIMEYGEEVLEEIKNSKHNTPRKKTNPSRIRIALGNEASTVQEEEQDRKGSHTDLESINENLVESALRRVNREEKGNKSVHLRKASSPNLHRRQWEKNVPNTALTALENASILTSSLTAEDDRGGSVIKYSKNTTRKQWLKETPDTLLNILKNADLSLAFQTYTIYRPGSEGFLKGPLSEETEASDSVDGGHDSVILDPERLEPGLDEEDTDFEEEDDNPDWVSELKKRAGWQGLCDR
# [2] = target: CDK6 (Homo sapiens, UniProt Q00534)
# Chain of CDK6 (Q00534 whole entry): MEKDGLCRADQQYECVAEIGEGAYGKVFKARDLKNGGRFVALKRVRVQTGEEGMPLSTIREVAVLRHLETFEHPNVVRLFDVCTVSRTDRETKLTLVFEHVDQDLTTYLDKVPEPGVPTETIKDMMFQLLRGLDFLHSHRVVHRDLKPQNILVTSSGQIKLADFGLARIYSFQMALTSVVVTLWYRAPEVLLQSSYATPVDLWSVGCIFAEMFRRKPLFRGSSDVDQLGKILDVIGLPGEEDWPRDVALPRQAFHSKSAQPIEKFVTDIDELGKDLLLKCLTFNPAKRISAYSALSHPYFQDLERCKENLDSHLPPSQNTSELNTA
# [3] = target: T2, MAP3K3 (Homo sapiens, UniProt Q99759)
# T2 sequence (Q99759 1-626): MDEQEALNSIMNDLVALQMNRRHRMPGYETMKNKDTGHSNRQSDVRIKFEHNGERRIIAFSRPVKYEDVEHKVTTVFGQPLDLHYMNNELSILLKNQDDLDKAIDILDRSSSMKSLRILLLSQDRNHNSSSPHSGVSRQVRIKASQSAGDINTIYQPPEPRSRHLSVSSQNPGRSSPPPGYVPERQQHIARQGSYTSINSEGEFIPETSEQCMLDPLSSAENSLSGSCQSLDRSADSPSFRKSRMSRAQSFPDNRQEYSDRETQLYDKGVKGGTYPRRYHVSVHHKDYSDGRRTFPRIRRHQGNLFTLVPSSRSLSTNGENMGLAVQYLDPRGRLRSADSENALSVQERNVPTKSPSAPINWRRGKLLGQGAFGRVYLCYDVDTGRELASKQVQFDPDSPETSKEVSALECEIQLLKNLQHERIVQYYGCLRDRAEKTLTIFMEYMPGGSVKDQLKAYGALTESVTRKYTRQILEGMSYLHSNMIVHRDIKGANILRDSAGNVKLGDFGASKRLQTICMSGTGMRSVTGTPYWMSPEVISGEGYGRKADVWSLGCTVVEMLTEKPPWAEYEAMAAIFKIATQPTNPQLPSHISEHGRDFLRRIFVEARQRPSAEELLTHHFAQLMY
# [4] = target: MAPK6 (Homo sapiens, UniProt Q16659)
# Chain of MAPK6 (Q16659 whole entry): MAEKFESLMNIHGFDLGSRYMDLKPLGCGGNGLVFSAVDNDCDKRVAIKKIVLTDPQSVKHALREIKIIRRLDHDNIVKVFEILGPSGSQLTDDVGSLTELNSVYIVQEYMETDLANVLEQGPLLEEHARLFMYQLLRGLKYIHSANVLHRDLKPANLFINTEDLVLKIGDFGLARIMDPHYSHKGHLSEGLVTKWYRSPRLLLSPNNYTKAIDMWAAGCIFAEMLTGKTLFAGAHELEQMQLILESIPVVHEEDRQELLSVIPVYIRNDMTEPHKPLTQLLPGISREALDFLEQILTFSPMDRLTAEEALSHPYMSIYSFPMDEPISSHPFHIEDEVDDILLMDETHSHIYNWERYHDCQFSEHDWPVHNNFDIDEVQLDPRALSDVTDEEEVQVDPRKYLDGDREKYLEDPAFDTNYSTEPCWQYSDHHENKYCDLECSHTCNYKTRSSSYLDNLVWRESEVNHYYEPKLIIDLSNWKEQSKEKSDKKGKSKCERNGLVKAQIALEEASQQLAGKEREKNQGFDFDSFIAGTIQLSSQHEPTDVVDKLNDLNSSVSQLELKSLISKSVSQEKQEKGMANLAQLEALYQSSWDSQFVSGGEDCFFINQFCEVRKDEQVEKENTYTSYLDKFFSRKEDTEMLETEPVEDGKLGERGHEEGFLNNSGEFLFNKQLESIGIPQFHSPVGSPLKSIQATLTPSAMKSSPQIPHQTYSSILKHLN
# [5] = target: LIMK2 (Homo sapiens, UniProt P53671)
# Chain of LIMK2 (P53671 whole entry): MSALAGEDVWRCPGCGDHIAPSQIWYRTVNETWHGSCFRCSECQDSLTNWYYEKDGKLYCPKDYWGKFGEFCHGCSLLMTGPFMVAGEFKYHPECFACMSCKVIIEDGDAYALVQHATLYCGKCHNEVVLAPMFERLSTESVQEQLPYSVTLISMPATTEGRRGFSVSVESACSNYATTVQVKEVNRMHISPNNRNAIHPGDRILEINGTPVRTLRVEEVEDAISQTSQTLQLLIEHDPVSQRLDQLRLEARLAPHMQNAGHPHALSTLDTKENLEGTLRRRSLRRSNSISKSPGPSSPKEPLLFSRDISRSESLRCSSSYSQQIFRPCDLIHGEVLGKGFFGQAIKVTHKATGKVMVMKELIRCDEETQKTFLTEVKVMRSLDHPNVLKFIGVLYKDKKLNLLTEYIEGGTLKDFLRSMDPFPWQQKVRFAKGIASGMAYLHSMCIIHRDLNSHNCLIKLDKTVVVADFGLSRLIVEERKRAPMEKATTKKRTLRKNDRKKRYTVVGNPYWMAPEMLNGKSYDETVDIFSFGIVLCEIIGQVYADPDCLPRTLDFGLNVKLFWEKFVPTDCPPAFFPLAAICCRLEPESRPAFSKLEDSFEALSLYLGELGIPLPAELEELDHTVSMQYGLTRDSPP
# [6] = target: MAP3K5 (Homo sapiens, UniProt Q99683)
# Chain of MAP3K5 (Q99683 whole entry): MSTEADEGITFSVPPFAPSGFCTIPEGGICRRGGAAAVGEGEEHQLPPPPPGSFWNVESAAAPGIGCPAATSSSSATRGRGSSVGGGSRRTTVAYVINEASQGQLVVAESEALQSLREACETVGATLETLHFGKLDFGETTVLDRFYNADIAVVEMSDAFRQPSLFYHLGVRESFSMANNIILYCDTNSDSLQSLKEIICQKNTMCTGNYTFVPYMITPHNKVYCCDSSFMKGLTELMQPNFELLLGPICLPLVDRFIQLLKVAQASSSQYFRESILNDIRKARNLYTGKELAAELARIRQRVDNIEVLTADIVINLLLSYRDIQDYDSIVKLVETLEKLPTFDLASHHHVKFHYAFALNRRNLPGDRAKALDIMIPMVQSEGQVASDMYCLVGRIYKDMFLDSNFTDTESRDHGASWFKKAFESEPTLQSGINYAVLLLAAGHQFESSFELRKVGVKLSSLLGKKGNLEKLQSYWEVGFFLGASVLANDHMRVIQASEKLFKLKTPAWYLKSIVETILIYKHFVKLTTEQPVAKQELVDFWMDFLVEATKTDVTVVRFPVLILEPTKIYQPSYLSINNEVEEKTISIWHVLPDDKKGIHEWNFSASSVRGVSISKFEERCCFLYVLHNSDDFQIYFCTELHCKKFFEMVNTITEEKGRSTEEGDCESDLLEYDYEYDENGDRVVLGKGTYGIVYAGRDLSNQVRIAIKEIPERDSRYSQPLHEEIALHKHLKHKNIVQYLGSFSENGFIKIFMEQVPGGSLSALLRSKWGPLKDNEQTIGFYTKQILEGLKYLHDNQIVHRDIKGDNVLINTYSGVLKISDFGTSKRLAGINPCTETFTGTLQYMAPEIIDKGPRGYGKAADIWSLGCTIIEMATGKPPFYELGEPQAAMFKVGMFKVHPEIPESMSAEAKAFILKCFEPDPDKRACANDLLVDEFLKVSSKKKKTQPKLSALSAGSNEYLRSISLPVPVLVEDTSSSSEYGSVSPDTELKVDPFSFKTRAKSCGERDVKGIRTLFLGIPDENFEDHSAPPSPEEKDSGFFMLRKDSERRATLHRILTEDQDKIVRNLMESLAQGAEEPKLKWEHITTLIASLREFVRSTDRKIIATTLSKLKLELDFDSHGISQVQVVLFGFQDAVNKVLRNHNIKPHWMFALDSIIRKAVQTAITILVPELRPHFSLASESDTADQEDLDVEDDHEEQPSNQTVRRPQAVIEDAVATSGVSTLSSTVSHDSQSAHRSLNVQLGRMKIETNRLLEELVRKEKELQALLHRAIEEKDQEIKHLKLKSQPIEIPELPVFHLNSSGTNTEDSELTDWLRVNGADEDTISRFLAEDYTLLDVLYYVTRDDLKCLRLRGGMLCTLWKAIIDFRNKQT
# [7] = target: T3, TGFBR1 (Homo sapiens, UniProt P36897)
# T3 sequence (P36897 1-503): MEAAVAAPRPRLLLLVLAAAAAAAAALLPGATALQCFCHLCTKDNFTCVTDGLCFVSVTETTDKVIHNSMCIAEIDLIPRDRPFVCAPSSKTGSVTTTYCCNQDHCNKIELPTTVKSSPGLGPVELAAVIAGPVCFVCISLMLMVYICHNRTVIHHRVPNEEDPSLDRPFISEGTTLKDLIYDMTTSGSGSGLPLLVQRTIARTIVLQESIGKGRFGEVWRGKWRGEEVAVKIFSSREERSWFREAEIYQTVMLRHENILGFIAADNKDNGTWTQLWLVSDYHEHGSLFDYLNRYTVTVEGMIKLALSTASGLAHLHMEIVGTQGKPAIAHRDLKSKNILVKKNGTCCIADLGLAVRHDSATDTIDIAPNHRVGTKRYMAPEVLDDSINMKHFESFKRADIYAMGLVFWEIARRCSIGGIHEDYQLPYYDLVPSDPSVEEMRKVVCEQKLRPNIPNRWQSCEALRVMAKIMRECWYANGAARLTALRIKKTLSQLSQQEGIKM
SMILES,IC50 [1],IC50 [2],IC50 [3],IC50 [4],IC50 [5],IC50 [6],IC50 [7]
CN1CCN(c2ccc(Nc3ncc(C#N)c(Nc4ccccc4C(N)=O)n3)cc2)CC1.Cl [TCMDC-134116],1100 nM,160 nM and 180 nM,310 nM,,,,
Cl.NCC1(c2nc(-c3ccc(Cl)c(O)c3)c(-c3ccncc3)[nH]2)CCCCC1 [TCMDC-141154],> 20000 nM,> 20000 nM,,> 20000 nM,> 20000 nM,> 20000 nM,95 nM and 140 nM
CN(C)CC(O)COc1ccc(Nc2ncc([N+](=O)[O-])c(Nc3ccccc3O)n2)cc1.O=C(O)C(F)(F)F (centres unmarked) [TCMDC-141399],,,6000 nM and > 20000 nM,320 nM,> 20000 nM,> 20000 nM,> 20000 nM
